We go through nine compounds from patent US8114986B2, “Analogous compounds of 6-thioguanosine triphosphate, their use in medical fields and processes for their preparation” (Giuliani International Limited, priority 2005, dated 2012).

For one series, the system named is human CD4+ T Lymphocytes. As to the kind of experiment: Induction of apoptosis in CD3/CD28 costimulated T lymphocytes, annexin V / propidium iodide FACS. It is filed as cell-based. To be noted: for induction of apoptosis: 5 μM added at day 0, CD3/CD28 costimulated T lymphocytes; for induction of apoptosis / induction of apoptosis compared with azathioprine or 6-mercaptopurine mediated induction: 3, 4 or 5 days, FIGS. 2-4; for induction of apoptosis compared with azathioprine or 6-mercaptopurine mediated induction: 5 μM; for apoptosis induction: FIGS. 5 and 6, at least three experimental data sets, primary T cells of different donors. The method, then: Human peripheral blood mononuclear cells (PBMC) from 4 buffycoats were isolated using Ficoll-Hypaque gradients. PBMC were further purified using CD4 monoclonal antibodies attached to immunomagnetic microbeads according to the protocol provided by the manufacturer (Miltenyi Biotec). […] Azathioprine, 6-Mercaptopurine, V1, V2, V3, V4 or V5 were added to the T cell cultures at day 0 at a final concentration of 5 μM. To determine induction of apoptosis in these T lymphocytes, cells were analyzed by FACS. For FACS analysis, apoptotic cells were detected by staining with annexin V and propidium iodide using the Annexin V FITC Apoptosis Detection Kit I (PharMingen). In brief, T cells were washed twice in PBS, and the pellet was resuspended in annexin V binding buffer (PharMingen) at a concentration of 10^6 cells per milliliter. Annexin V FITC and propidium iodide were added (5 μl of each per 10^5 cells), Samples were gently mixed and incubated for 15 minutes at room temperature in the dark before FACS analysis.
• Annexin-positive, propidium iodide-negative cells (black bars) present the rate of early apoptotic cells. Annexin-positive, propidium iodide-positive cells (white bars) present late apoptotic or necrotic cells. • Induction of apoptosis=(Rate of apoptotic cells after indicated treatment)−(Rate of apoptosis of untreated cells) • V1, V2 and V3 were tested in 4 independent experiments. V4 and V5 were tested in 2 independent experiments.

The next series relates to caspase-3/7 in T cells. As to the kind of experiment: Caspase-Glo 3/7 Assay in stimulated CD4+ T cells. It is filed as cell-based, human. The following applies: day three of culture; untreated cells = 100%; three experiments; FIG. 8. The method, then:
FIG. 8: Caspase-graph: Luminescence value of untreated cells was defined as 100% Caspase activity. Due to their specific luminescence value the caspase activity of treated cells were calculated accordingly. Induction of Caspase activityx[%]=Caspase activityx[%]−Caspase activityuntreated[%]. Means±SEM (Standart Error of the Mean=Standard deviation/radical(n)) of three different experiments are presented.
In addition, an alternative method was performed for screening of group-D derivatives (FIG. 8). It was decided to analyse the activity of caspase-3/7 in T cells, which were treated with group-D derivatives. As compared to AnnexinV/PI staining this new method might have some advantages: • It is an easier protocol. Therefore there are fewer possibilities for individual errors. • Increased activity of caspase-3 is very specific for apoptosis. Therefore this method is very sensitive for the detection of apoptosis. There is no interfering influence of necrotic cells. • The measurement is done in duplicate. In this way there is an internal control.
The Caspase-Glo 3/7 Assay (Promega™) was used. This assay is based on a caspase dependent luminescent signal. Protocol: CD4^+ T cells were isolated from human blood by magnetic beads (Dynal). T lymphocytes were stimulated in complete RPMI-1640 medium (RPMI-1640+10% FCS+100 U/ml Penicillin/Streptomycin+3 mM L-Glutamin) for 3 days with coated antibodies to CD3 (0.04 μg/ml) and soluble CD28 antibodies (PharMingen™; 1 μg/ml) plus IL-2 (R & D Systems™, Wiesbaden, Germany; 40 U/ml) in 96-well plates. Cells were treated with different group-D derivatives or were left untreated. At day three of culture Caspase-3/7 Assay was performed. 25 μl of Caspase-Glo 3/7 reagent was added to each well. Probes were mixed gently for 2 minutes and incubated at room temperature for 30 minutes. Finally 100 μl of each probe were transferred to a white walled 96-well luminometer plate and analysed in a plate-reading luminometer. The added reagent contains a specific substrate of caspase-3 and caspase-7. Cleavage of this substrate by activated caspase-3 results in luciferase reaction. Luminescence is proportional to the amount of caspase activity present (FIG. 8)

The next series concerns the target Rac1 (Homo sapiens, UniProt P63000). The following applies: cited from earlier work.
Another series is described as follows: Solubility in water. It is filed as physicochemical.

As to `NCCCCCCNc1nc2c(ncn2[C@@H]2O[C@H](CO)[C@@H](O)[C@H]2O)c(=O)[nH]1` [V2, N-2-(6″-Aminohexyl)-guanosine], the induction of apoptosis entry in the series with human CD4+ T Lymphocytes is given as “not able to induce apoptosis”.

For the compound `Cc1cc(CNC(=O)[C@@H]2OC3C(COP(=O)(O)OP(=O)(O)OP(=O)(O)O)OC(n4cnc5c(=S)[nH]c(N)nc54)C3O2)nn1C` (some centres unmarked) [06D-14], the “induction of caspase activity” value in the series on caspase-3/7 in T cells is listed as “promising”.

On to `Cn1ccc(NC(=O)[C@@H]2OC3C(COP(=O)(O)OP(=O)(O)OP(=O)(O)O)OC(n4cnc5c(=S)[nH]c(N)nc54)C3O2)n1` (some centres unmarked) [06D-13], for which the “induction of caspase activity” value in the series on caspase-3/7 in T cells is “promising”.

In the case of TAMRA-EDA-6-Thio-GTP [V5], in the series on human CD4+ T Lymphocytes, the induction of apoptosis entry was “able to induce apoptosis”; the “induction of apoptosis compared with azathioprine or 6-mercaptopurine mediated induction” value is “more pronounced and appeared earlier”.

As for `Nc1nc2c(ncn2[C@@H]2O[C@H](COP(=O)(O)OP(=O)(O)OP(=O)(O)O)[C@@H](O)[C@H]2O)c(=S)[nH]1` [6-Thio-GTP, 6-thioguanosine triphosphate], the “induction of caspase activity” value in the series with caspase-3/7 in T cells is on record as “able to induce caspase activity”. In addition, on Rac1, the “affinity to Rac1, fold less in comparison with GTP” value is reported as 20 fold. Besides, the apoptosis induction entry in the series with human CD4+ T Lymphocytes is “on average was not able to induce apoptosis”.

On to Aspartate-2,3′-EDA-6-Thio-GTP [05B-1], for which the “induction of caspase activity” value with caspase-3/7 in T cells is listed as “less effective than 05B-0”.

Regarding `CC(=O)NCCCCCCNc1nc(O)c2ncn([C@@H]3O[C@H](COC(C)=O)C(OC(C)=O)C3OC(C)=O)c2n1` (some centres unmarked) [V3, 2′,3′,5′,o-Triacetyl-N-2-(Acetyl-6″-aminohexyl)-guanosine], the solubility in water result in “Solubility in water” is reported as “not soluble in water”. Moreover, the induction of apoptosis result in the series with human CD4+ T Lymphocytes was “not able to induce apoptosis”.

With `CC(=O)OC[C@H]1O[C@@H](n2cnc3c(S)nc(NCCCCCCNC(C)=S)nc32)C(OC(C)=O)C1OC(C)=O` (some centres unmarked) [V4, 2′,3′,5′-Triacetyl-N-2-(6″-thioacetamide-hexyl)-6-Thioguanosine], in the series “Solubility in water”, the solubility in water entry is recorded as “not soluble in water”. The induction of apoptosis result with human CD4+ T Lymphocytes was “not able to induce apoptosis”.

With 2′,3′-EDA-6-Thio-GTP [05B-0], the “induction of caspase activity” value in the series with caspase-3/7 in T cells was “very effective”. Further, in the series with human CD4+ T Lymphocytes, the induction of apoptosis entry is listed as “able to induce apoptosis”; the “induction of apoptosis compared with azathioprine or 6-mercaptopurine mediated induction” value is “more pronounced and appeared earlier”; the apoptosis induction entry is recorded as “strongest candidate drug for apoptosis induction”.
